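Briefly, cells in 96-well plates were exposed to five compound concentrations for 48 h, and endpoints were estimated by linear interpolation. At the GI50, growth is halved.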 Active and inactive are the calls of the source. No stated cut-off is given here; in the data, active = GI50 up to about 1.1 µM and inactive = higher.
Tests used:
Assay in all cases: NCI anticancer screen, dose series, 48 h
786-0 = tested on: 786-0
A498 = tested on: A498
CAKI-1 = tested on: CAKI-1
CCRF-CEM = tested on: CCRF-CEM
COLO 205 = tested on: COLO 205
HCT-116 = tested on: HCT-116
IGROV-1 = tested on: IGROV-1
K562 = tested on: K562
KM12 = tested on: KM12
M14 = tested on: M14
MCF7 = tested on: MCF7
NCI-H226 = tested on: NCI-H226
NCI-H23 = tested on: NCI-H23
NCI-H460 = tested on: NCI-H460
SF-295 = tested on: SF-295
SK-OV-3 = tested on: SK-OV-3
U-251 = tested on: U-251
SK-MEL-5 = tested on: SK-MEL-5

Row | Compound | GI50 (786-0) | GI50 (A498) | GI50 (CAKI-1) | GI50 (CCRF-CEM) | GI50 (COLO 205) | GI50 (HCT-116) | GI50 (IGROV-1) | GI50 (K562) | GI50 (KM12) | GI50 (M14) | GI50 (MCF7) | GI50 (NCI-H226) | GI50 (NCI-H23) | GI50 (NCI-H460) | GI50 (SF-295) | GI50 (SK-OV-3) | GI50 (U-251) | GI50 (SK-MEL-5)
1 | COc1cc(C)c(/C=C2/N=C(c3ccccc3)OC2=O)c([N+](=O)[O-])c1OC | > 100 µM (inactive) | > 100 µM (inactive) | > 100 µM (inactive) | 73.6 µM (inactive) | > 100 µM (inactive) | > 100 µM (inactive) | > 100 µM (inactive) | > 100 µM (inactive) | > 100 µM (inactive) | > 100 µM (inactive) | > 100 µM (inactive) | > 100 µM (inactive) | > 100 µM (inactive) | > 100 µM (inactive) | > 100 µM (inactive) | > 100 µM (inactive) | > 100 µM (inactive) | –
2 | COc1cc(C2C(Cl)C(=O)N2NC(=O)c2ccc(NC(C)=O)cc2OC)ccc1O (stereo not given) | 15.1 µM (inactive) | 19.4 µM (inactive) | 31.1 µM (inactive) | 2.64 µM (inactive) | 14.9 µM (inactive) | 16.9 µM (inactive) | 17.5 µM (inactive) | 18.1 µM (inactive) | 20.4 µM (inactive) | 16.3 µM (inactive) | 19.3 µM (inactive) | 10.6 µM (inactive) | 17.7 µM (inactive) | – | < 0.01 µM (active) | 63.1 µM (inactive) | – | 15.2 µM (inactive)
3 | N#CC(=C1CCN(CCCC(=O)c2ccc(F)cc2)CC1)c1ccccc1 | > 100 µM (inactive) | > 100 µM (inactive) | > 100 µM (inactive) | > 100 µM (inactive) | > 100 µM (inactive) | > 100 µM (inactive) | > 100 µM (inactive) | > 100 µM (inactive) | > 100 µM (inactive) | – | > 100 µM (inactive) | > 100 µM (inactive) | > 100 µM (inactive) | > 100 µM (inactive) | > 100 µM (inactive) | > 100 µM (inactive) | > 100 µM (inactive) | > 100 µM (inactive)
4 | C=CCC1C(O[Si](C)(C)C(C)(C)C)C(CO[Si](C)(C)C(C)(C)C)OC1n1ccc(=O)[nH]c1=O (stereo not given) | 1.15 µM (inactive) | 2.03 µM (inactive) | 1.63 µM (inactive) | 0.548 µM (active) | 1.63 µM (inactive) | 1.06 µM (active) | 1.41 µM (inactive) | 1.22 µM (inactive) | 1.96 µM (inactive) | 1.42 µM (inactive) | 1.15 µM (inactive) | 1.51 µM (inactive) | 1.29 µM (inactive) | 1.16 µM (inactive) | 1.78 µM (inactive) | – | 2.2 µM (inactive) | 1.51 µM (inactive)
5 | CCOc1ccccc1/N=N/C1C(=O)N(C(=O)CC(=O)Nc2ccccc2OC)N=C1C (stereo not given) | 56.2 µM (inactive) | 63.4 µM (inactive) | > 100 µM (inactive) | > 100 µM (inactive) | > 100 µM (inactive) | 40.9 µM (inactive) | 50.8 µM (inactive) | – | > 100 µM (inactive) | > 100 µM (inactive) | > 100 µM (inactive) | > 100 µM (inactive) | 80 µM (inactive) | 42.4 µM (inactive) | 20.9 µM (inactive) | 27.5 µM (inactive) | 27.3 µM (inactive) | > 100 µM (inactive)
6 | N#C[BH2-][n+]1ccc(C(=O)NNCc2ccc(F)cc2)cc1 | > 100 µM (inactive) | > 100 µM (inactive) | > 100 µM (inactive) | > 100 µM (inactive) | > 100 µM (inactive) | > 100 µM (inactive) | > 100 µM (inactive) | > 100 µM (inactive) | > 100 µM (inactive) | > 100 µM (inactive) | > 100 µM (inactive) | > 100 µM (inactive) | – | > 100 µM (inactive) | > 100 µM (inactive) | – | > 100 µM (inactive) | > 100 µM (inactive)
7 | COc1ccc2c(c1)CC1(O)COc3cc(OC)ccc3C1O2 (stereo not given) | > 100 µM (inactive) | > 100 µM (inactive) | > 100 µM (inactive) | > 100 µM (inactive) | > 100 µM (inactive) | > 100 µM (inactive) | > 100 µM (inactive) | – | > 100 µM (inactive) | > 100 µM (inactive) | > 100 µM (inactive) | > 100 µM (inactive) | > 100 µM (inactive) | – | > 100 µM (inactive) | > 100 µM (inactive) | 91.6 µM (inactive) | 38.8 µM (inactive)
8 | CCOC(=O)Nc1sc2c(c1C#N)CCCC2 | > 100 µM (inactive) | 85.3 µM (inactive) | > 100 µM (inactive) | 64.9 µM (inactive) | > 100 µM (inactive) | 74.1 µM (inactive) | > 100 µM (inactive) | 33.1 µM (inactive) | 25.9 µM (inactive) | – | > 100 µM (inactive) | 89.5 µM (inactive) | > 100 µM (inactive) | > 100 µM (inactive) | > 100 µM (inactive) | > 100 µM (inactive) | > 100 µM (inactive) | 71.6 µM (inactive)
9 | CCOc1ccc(-n2c(=O)n3c(Nc4ccc(Cl)cc4)nc4c(c(=O)n(C)c(=O)n4C)n3c2=O)cc1 | 36.6 µM (inactive) | 22.9 µM (inactive) | 38.5 µM (inactive) | 20.8 µM (inactive) | 21.6 µM (inactive) | 19.5 µM (inactive) | 37.4 µM (inactive) | 29.6 µM (inactive) | 16 µM (inactive) | > 10 µM (inactive) | 57.3 µM (inactive) | 22.7 µM (inactive) | 27.5 µM (inactive) | 19.5 µM (inactive) | 31.6 µM (inactive) | – | 32.7 µM (inactive) | 19 µM (inactive)
10 | O=C(O)C12C3CCC(O3)C1(C(=O)O)C1CCC2O1 (stereo not given) | > 100 µM (inactive) | > 100 µM (inactive) | > 100 µM (inactive) | > 100 µM (inactive) | > 100 µM (inactive) | > 100 µM (inactive) | > 100 µM (inactive) | > 100 µM (inactive) | > 100 µM (inactive) | – | > 100 µM (inactive) | > 100 µM (inactive) | > 100 µM (inactive) | > 100 µM (inactive) | > 100 µM (inactive) | > 100 µM (inactive) | > 100 µM (inactive) | > 100 µM (inactive)
11 | CCNc1ncnc2c1nnn2CC | > 100 µM (inactive) | > 100 µM (inactive) | > 100 µM (inactive) | > 100 µM (inactive) | > 100 µM (inactive) | > 100 µM (inactive) | > 100 µM (inactive) | > 100 µM (inactive) | > 100 µM (inactive) | > 100 µM (inactive) | > 100 µM (inactive) | > 100 µM (inactive) | > 100 µM (inactive) | – | 79.6 µM (inactive) | > 100 µM (inactive) | > 100 µM (inactive) | > 100 µM (inactive)
12 | COc1cccc2cc(C(C)=O)c(=O)oc12 | > 100 µM (inactive) | > 100 µM (inactive) | > 100 µM (inactive) | > 100 µM (inactive) | > 100 µM (inactive) | > 100 µM (inactive) | > 100 µM (inactive) | > 100 µM (inactive) | > 100 µM (inactive) | > 100 µM (inactive) | > 100 µM (inactive) | > 100 µM (inactive) | > 100 µM (inactive) | > 100 µM (inactive) | > 100 µM (inactive) | – | > 100 µM (inactive) | > 100 µM (inactive)
13 | [O-][n+]1nc(N2CCOCC2)nc2ccccc21 | > 100 µM (inactive) | 43.3 µM (inactive) | > 100 µM (inactive) | > 100 µM (inactive) | > 100 µM (inactive) | > 100 µM (inactive) | > 100 µM (inactive) | > 100 µM (inactive) | > 100 µM (inactive) | > 100 µM (inactive) | > 100 µM (inactive) | > 100 µM (inactive) | > 100 µM (inactive) | – | > 100 µM (inactive) | > 100 µM (inactive) | > 100 µM (inactive) | –
14 | Cc1cc2[nH]c3c(C#N)c(-c4ccccc4)c(/N=N/c4ccc(F)cc4)c(=O)n3c2cc1C | 31 µM (inactive) | > 100 µM (inactive) | > 100 µM (inactive) | > 100 µM (inactive) | > 100 µM (inactive) | 25.6 µM (inactive) | – | – | – | > 100 µM (inactive) | > 100 µM (inactive) | > 100 µM (inactive) | > 100 µM (inactive) | 83.9 µM (inactive) | > 100 µM (inactive) | > 100 µM (inactive) | 42.5 µM (inactive) | 9.55 µM (inactive)
15 | O=c1[nH]nc(Nc2ccc(Cl)cc2)c2nnn(C3CCCCC3)c12 | 15.1 µM (inactive) | 37.4 µM (inactive) | 16.2 µM (inactive) | 26.7 µM (inactive) | 59.2 µM (inactive) | 42.1 µM (inactive) | > 100 µM (inactive) | 26.5 µM (inactive) | 65.5 µM (inactive) | 55.1 µM (inactive) | 58.5 µM (inactive) | 86.7 µM (inactive) | 45.3 µM (inactive) | 41.4 µM (inactive) | > 100 µM (inactive) | – | 25.2 µM (inactive) | > 100 µM (inactive)
16 | OCCN1CN(c2nc(N3CN(CCO)C3)nc(N3CN(CCO)C3)n2)C1 | 23.8 µM (inactive) | 31.5 µM (inactive) | 22.5 µM (inactive) | 20.5 µM (inactive) | 28 µM (inactive) | 18.6 µM (inactive) | 30.1 µM (inactive) | 25.4 µM (inactive) | 21.4 µM (inactive) | 17.5 µM (inactive) | 21.3 µM (inactive) | 24.8 µM (inactive) | 22.2 µM (inactive) | 19.5 µM (inactive) | – | – | 22.6 µM (inactive) | 19.2 µM (inactive)

Source: ChEMBL document CHEMBL1201862, “PubChem BioAssay data set” (2004)
